Assay results published in ChEMBL document CHEMBL5131528, “2-Aminoquinazolines as LRRK2 Inhibitors for Treating Parkinson's Disease” (ACS Med Chem Lett, 2022).
pIC50: −log10 of the molar value.

Biological target: Leucine-rich repeat serine/threonine-protein kinase 2 (Homo sapiens, UniProt Q5S007, G2019S)
Test: Inhibition of GST-tagged truncated human LRRK2 G2019S mutant using fluorescein labeled LRRKtide peptide as substrate preincubated for 15 mins followed by substrate addition and measured after 90 mins in presence of ATP at Km concentration by TR-FRET Lanthascreen assay

Leucine-rich repeat serine/threonine-protein kinase 2, sequence (Q5S007 whole entry G2019S, the tested form may be a part): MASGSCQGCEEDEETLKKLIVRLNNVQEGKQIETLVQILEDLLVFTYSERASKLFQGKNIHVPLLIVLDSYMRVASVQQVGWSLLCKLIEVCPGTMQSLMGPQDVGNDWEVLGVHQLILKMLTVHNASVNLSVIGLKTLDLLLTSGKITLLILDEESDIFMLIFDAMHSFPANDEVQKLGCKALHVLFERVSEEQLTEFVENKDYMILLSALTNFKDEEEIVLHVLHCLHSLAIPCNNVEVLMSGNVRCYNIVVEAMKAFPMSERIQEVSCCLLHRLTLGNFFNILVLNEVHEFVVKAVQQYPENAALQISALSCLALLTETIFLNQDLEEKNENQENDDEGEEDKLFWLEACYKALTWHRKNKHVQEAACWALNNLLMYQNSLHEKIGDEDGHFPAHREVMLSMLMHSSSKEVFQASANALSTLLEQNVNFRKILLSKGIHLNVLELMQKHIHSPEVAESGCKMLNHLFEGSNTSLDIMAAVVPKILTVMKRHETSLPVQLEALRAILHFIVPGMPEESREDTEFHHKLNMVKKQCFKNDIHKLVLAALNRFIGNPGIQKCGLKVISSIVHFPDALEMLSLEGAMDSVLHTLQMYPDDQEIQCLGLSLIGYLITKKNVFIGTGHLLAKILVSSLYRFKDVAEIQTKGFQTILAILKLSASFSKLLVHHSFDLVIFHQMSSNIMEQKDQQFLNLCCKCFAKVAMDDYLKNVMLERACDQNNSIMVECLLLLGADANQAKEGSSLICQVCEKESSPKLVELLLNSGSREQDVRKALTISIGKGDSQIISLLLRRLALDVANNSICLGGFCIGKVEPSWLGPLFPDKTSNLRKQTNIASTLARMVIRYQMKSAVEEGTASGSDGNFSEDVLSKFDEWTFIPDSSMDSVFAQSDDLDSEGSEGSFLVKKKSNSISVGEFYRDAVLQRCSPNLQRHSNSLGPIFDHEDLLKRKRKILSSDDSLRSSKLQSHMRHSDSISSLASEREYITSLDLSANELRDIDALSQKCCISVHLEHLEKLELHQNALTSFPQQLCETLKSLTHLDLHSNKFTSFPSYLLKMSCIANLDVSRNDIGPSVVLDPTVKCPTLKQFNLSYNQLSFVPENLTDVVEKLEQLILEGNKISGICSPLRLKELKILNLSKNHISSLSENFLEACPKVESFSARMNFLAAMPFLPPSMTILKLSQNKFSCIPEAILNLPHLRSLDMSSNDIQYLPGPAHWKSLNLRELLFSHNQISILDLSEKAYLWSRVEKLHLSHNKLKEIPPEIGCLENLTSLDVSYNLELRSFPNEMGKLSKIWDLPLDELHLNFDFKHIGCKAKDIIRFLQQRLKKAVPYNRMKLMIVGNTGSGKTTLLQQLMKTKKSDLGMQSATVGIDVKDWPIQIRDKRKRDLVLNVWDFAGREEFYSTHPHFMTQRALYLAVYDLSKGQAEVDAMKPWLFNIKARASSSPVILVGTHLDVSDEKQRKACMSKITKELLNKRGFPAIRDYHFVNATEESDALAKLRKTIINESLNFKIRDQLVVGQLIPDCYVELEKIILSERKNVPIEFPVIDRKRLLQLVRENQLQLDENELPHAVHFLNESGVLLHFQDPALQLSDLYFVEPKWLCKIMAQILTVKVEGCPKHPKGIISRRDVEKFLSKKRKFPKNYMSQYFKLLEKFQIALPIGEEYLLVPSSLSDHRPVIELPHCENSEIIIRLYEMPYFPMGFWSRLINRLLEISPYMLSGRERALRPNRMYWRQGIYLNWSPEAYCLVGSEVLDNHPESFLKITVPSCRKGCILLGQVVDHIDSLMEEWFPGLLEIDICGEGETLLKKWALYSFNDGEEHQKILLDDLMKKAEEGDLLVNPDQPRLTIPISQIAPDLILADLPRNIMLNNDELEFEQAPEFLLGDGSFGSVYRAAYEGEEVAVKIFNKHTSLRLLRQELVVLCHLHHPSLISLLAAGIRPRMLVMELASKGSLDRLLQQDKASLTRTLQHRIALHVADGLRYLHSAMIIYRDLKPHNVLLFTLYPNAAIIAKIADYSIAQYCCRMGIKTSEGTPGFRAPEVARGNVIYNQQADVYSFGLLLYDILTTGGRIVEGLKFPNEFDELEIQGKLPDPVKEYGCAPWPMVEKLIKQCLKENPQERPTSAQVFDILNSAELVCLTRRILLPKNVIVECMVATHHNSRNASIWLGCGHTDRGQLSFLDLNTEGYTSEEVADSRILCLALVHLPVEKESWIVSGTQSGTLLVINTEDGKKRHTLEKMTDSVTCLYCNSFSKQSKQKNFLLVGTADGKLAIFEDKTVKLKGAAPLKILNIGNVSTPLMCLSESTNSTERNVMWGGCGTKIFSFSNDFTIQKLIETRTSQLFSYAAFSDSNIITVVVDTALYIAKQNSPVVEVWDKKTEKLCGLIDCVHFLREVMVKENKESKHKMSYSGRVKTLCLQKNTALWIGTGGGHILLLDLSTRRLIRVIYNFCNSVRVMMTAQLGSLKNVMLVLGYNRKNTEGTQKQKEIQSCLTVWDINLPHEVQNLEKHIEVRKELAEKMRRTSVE

| pIC50 | SMILES |
| --- | --- |
| 10.19 | CC1NN=CC1Nc1ncc2cc(Cl)c(N3CCC(C)(O)C(C)C3)cc2n1 (stereo unspecified) |
| 10.12 | CC(C)(O)CN1CCN(c2cc3nc(Nc4cnn(C5CC5)c4Cl)ncc3cc2Cl)CC1 |
| 9.76 | Clc1cc2cnc(Nc3cnn(C45CC(C4)C5)c3Cl)nc2cc1N1CCC2(CCCO2)CC1 |
| 9.73 | CC(C)(C)Cn1cc(Nc2ncc3cc(Cl)c(N4CCC(C5(C)COC5)CC4)cc3n2)cn1 |
| 9.35 | Cc1c(Nc2ncc3cc(Cl)c(N4C(=O)OC[C@H]4C)cc3n2)cnn1C1CCOCC1 |
| 9.77 | CC1(O)CCN(c2cc3nc(Nc4cnn(C5CC5)c4Cl)ncc3cc2Cl)C1 (stereo unspecified) |
